Results reported in paper PMC4655142 (Neuropharmacology, 2015).
Where two headings read alike, the source gives them in different places.

Key:
C57Bl/6J mice = assay: Tolerance to acute nicotine after chronic treatment; format: in vivo; settings: Mus musculus, ip
[1] = cited from earlier work
[2] = cited from earlier work; remark: listed apart in the source
[3] = cited from earlier work; remark: listed apart in the source
[4] = molecular target: [125I]-epibatidine binding sites (α4β2-nAChR), cortex membranes (Mus musculus, UniProt O70174+Q9ERK7); assay: Inhibition of [125I]-epibatidine binding to cortex membranes; set-up: species or system C57Bl/6J mice
[125I]-epibatidine binding sites (α4β2-nAChR), cortex membranes, sequence (O70174 31-629): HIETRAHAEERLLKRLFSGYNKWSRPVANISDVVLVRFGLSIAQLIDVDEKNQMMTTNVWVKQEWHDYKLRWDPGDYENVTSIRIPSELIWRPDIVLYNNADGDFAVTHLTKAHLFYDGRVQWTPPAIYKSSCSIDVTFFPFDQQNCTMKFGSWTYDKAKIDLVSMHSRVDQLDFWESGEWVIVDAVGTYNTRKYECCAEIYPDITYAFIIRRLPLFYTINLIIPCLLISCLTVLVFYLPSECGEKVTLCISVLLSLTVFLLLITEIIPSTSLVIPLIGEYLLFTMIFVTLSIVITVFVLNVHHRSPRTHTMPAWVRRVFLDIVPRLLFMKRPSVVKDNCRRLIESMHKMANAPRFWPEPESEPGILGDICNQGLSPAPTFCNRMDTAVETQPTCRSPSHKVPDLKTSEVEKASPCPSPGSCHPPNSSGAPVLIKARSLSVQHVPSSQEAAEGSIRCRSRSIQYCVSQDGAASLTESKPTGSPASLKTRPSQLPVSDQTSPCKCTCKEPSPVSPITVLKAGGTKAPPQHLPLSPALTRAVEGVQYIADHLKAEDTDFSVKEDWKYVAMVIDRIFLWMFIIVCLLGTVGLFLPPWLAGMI
[125I]-epibatidine binding sites (α4β2-nAChR), cortex membranes, sequence (Q9ERK7 26-501): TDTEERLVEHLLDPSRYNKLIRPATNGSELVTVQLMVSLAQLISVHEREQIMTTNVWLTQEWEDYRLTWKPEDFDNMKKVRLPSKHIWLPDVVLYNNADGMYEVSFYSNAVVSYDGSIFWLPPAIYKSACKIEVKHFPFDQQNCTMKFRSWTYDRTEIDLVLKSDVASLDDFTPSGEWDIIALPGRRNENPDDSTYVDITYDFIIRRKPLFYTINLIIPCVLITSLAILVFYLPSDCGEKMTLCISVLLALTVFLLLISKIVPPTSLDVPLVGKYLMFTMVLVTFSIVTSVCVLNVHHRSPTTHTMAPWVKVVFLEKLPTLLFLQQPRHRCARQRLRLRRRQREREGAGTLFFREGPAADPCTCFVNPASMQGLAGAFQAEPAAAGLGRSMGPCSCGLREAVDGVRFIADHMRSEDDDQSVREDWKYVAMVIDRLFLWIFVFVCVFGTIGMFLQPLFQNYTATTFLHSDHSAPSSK

Work on `CN1CCC[C@H]1c1cccnc1` [Nicotine] yielded an ED50 (C57Bl/6J mice; 24 h, read-out: ED50 of acute ip nicotine, Body temperature) of 0.8 ± 0.05 mg/kg, an ED50 (C57Bl/6J mice; 24 h, read-out: ED50 of acute ip nicotine, Open field) of 0.6 ± 0.06 mg/kg and an ED50 (C57Bl/6J mice; 24 h, read-out: ED50 of acute ip nicotine, Y-maze cross) of 0.49 ± 0.04 mg/kg. The ED50 (C57Bl/6J mice; 24 h, read-out: ED50 of acute ip nicotine, Y-maze rear) was 0.38 ± 0.03 mg/kg, the ED50 (C57Bl/6J mice; read-out: ED50 of acute ip nicotine, Body temperature) was 0.88 ± 0.09 mg/kg and the ED50 (C57Bl/6J mice; read-out: ED50 of acute ip nicotine, Open field) was 0.55 ± 0.06 mg/kg. For the same molecule, the ED50 (C57Bl/6J mice; read-out: ED50 of acute ip nicotine, Y-maze cross) was 0.47 ± 0.06 mg/kg, the ED50 (C57Bl/6J mice; read-out: ED50 of acute ip nicotine, Y-maze rear) was 0.38 ± 0.05 mg/kg and the Plasma level ([1]; human smokers, pre-quit, smoking cessation trial, ref Dobrinas et al, 2011) was “up to 52 ng/ml”. For the same molecule, the Plasma level ([2]; mice, 12-24 mg/kg/day, ref Marks, Rowell et al., 2004, Matta et al, 2007) was 40 to 80 ng/mL, the Plasma level ([2]; mice, similar chronic treatment protocols, ref Marks, Rowell et al., 2004) was 40 to 80 ng/mL and the Plasma level ([2]; mouse, in vivo, sc, 1 mg/kg) was 160 ng/mL. The Plasma level ([3]; rat, sc infusion of 2.4 mg/kg/day, ref Rowell and Li, 1997) was 43 ng/mL, the Plasma level ([3]; rats, 0.8 mg/kg/day, ref Ghosheh et al, 2001) was 6.5 ng/mL and the Plasma level ([3]; rats, 6.0 mg/kg/day, ref Hussman, Turner et al, 2012, Doura et al, 2008) was 146 to 313 ng/mL.

For `c1cnc2cc3c(cc2n1)[C@@H]1CNC[C@H]3C1` [Varenicline], the Plasma level ([1]; humans taking varenicline, smoking cessation study, ref Dobrinas et al, 2011) is listed as “up to 20 ng/ml”, the Plasma level ([1]; humans, single oral dose 1 mg (~[…]), ref Obach et al, 2006, Al-Haj et al, 2013) is listed as 4 to 6 ng/mL and the “t ½” value ([1]; humans, ref Obach et al, 2006) is listed as 17.6 h. The Ki [4] was 110 ± 10 pM, the Peak plasma level ([2]; mice, single oral dose of 3 mg (or ~120 mg/kg), ref Obach et al, 2006) was 293 ng/mL and the “brain:plasma ratio” value ([3]; rats, ref Hussmann, Turner et al, 2012) was 1.5.
